Values joined by “and” are separate entries in the source; they are usually repeats but may differ in a detail not shown here. Identical values can stand only once.

Here are results for one compound from paper PMC9532951, “Identification and characterization of a novel SNAT2 (SLC38A2) inhibitor reveals synergy with glucose transport inhibition in cancer cells” (Frontiers in Pharmacology, 2022).

The subject of one experiment is HCC1806 wild-type cells. As to the kind of experiment: FMP assay in the absence of amino acid substrate (non-specific effects). The format is cell-based, human. The method, then:
The FLIPR Membrane Potential Blue Explorer Kit (Molecular Devices) was used to characterise inhibitors and to optimise a high-throughput compound screen. Cells were seeded at approximately 60,000 cells/well on a 96-well plate and allowed to attach and grow overnight in a cell incubator. The next day, the cells were washed once with mHBSS and incubated in a starvation medium (composed of mHBSS with 1% dialysed heat-inactivated FBS, 23 mM NaHCO3, 10 U/ml penicillin and 10 μg/ml streptomycin) for 24 h. Cells were then washed once with mHBSS and incubated with 50 µl of the mHBSS-resuspended FMP assay dye and 50 µl of mHBSS (with or without inhibitors) and incubated at room temperature for 30 min. The plate was then placed in an EnSpire Multimode plate reader (PerkinElmer) and four sequential measurements of fluorescence were recorded as a baseline reference. […] The excitation wavelength was set to 530 nm and the emission was detected at 565 nm. The Δ fluorescent signal reported in the figures was taken 30 s after substrate addition. After the assay was complete, the liquid content of the plate was carefully removed, and the cell monolayer inspected to ensure it remained intact throughout the course of the assay.

In another experiment the target is T1, B0AT1 (SLC6A19) (Homo sapiens, UniProt Q695T7).
T1 construct: expressed in transfected cells
T1 sequence (Q695T7 1-634): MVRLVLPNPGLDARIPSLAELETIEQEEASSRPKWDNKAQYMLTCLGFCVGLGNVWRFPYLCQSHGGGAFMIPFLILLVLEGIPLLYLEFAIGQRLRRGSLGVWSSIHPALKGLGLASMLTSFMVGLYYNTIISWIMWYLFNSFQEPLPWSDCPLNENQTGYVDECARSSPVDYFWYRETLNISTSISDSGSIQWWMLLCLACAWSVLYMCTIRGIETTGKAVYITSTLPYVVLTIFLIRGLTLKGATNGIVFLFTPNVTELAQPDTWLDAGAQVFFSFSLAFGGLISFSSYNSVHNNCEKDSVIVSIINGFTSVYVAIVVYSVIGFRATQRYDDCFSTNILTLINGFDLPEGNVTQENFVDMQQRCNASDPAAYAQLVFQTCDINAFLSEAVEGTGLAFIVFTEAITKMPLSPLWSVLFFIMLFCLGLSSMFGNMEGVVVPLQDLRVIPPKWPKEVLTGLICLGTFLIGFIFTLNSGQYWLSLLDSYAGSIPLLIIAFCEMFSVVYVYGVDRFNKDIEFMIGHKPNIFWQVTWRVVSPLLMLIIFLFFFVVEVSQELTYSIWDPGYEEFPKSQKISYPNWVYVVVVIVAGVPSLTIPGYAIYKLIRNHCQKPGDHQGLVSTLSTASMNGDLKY
T1 sequence (Q9HBJ8 15-222 partner): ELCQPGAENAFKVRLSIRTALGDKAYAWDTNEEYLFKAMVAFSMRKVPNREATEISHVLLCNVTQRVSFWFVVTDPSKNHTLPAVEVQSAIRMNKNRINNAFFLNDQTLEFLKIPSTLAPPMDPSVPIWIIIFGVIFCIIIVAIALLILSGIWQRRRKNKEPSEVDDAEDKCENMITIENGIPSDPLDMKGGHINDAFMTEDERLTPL
Nature of the experiment: Leucine uptake in CHO cells stably expressing human B0AT1 and collectrin. The class given is cell-based. To be noted: 150 µM leucine, hit compounds at 30 µM, n = 3.

For the compound `Cc1ccc(S(=O)(=O)N(C)c2ccsc2C(=O)NCc2ccccc2C(F)(F)F)cc1` [Compound 57_E, 3-(N-methyl (4-methylphenyl)sulfonamido)-N-(2-trifluoromethylbenzyl)thiophene-2-carboxamide], the “effect on FMP signal without substrate” value with HCC1806 wild-type cells (30 µM) is “small hyperpolarisation”. The “FMP fluorescence trace (Figure 4C)” value in the experiment with HCC1806 wild-type cells (time 0) was 66214 and 65985 and 59075; in the experiment on HCC1806 wild-type cells (time 20), 50115 and 66503 and 60514; with HCC1806 wild-type cells (time 40), 49573 and 67066 and 60917; with HCC1806 wild-type cells (time 60), 49249 and 67578 and 60989; with HCC1806 wild-type cells (time 80), 48925 and 68056 and 61565; in the experiment on HCC1806 wild-type cells (time 100), 48207 and 68319 and 61663. The “FMP fluorescence trace (Figure 4C)” value with HCC1806 wild-type cells (time 120) is 47392 and 68434 and 62185; in the experiment on HCC1806 wild-type cells (time 140) it was 47194 and 68990 and 62194; in the experiment with HCC1806 wild-type cells (time 160), 46255 and 69305 and 62352; in the experiment with HCC1806 wild-type cells (time 180), 45269 and 69919 and 62492; in the experiment with HCC1806 wild-type cells (time 200), 44480 and 70206 and 63053; with HCC1806 wild-type cells (time 220), 43946 and 70155 and 63572. Besides, the “FMP fluorescence trace (Figure 4C)” value with HCC1806 wild-type cells (time 240) was 43376 and 70703 and 63707; in the experiment with HCC1806 wild-type cells (time 260), 42447 and 71161 and 64093; in the experiment with HCC1806 wild-type cells (time 280), 41764 and 71707 and 64350; in the experiment with HCC1806 wild-type cells (time -20), 65818 and 65842 and 59063; in the experiment on HCC1806 wild-type cells (time -40), 65477 and 66036 and 58494. Also, the “Leucine uptake, Mean” value at B0AT1 (SLC6A19) came to 55.2874 nmol / mg protein x 6 min.
